Here are results for four molecules from patent US7285552B2, “Drugs containing triazaspiro[5.5]undecane derivatives as the active ingredient” (Ono Pharmaceuticals Co., Ltd., priority 2001, dated 2007).

Assay type in all cases: cell-based
One test concerns HIV-1BaL. The test is described as follows: Inhibiting activity to HIV-1 infection to human PBMC (p24 antigen, EIA), HIV-1BaL. The procedure: (§1) Human PBMC (peripheral blood mononuclear cell) was isolated from HIV-negative healthy persons by a Ficol-Hipaque density-gradient centrifugation and incubated for 3 days in the presence of 10 μg/ml PHA (phytohemagglutinin). PHA-stimulated PBMC was suspended in RPMI 1640 containing 10% serum to give a density of 1×10^5 cells/ml and poured into a 96-well microplate. Furthermore, in the presence of a sole test compound in various concentrations or in the co-presence with other anti-HIV inhibitor (such as AZT (zidovudin) or AMD 3100), various HIV-1 cell lines of 50 TCID50 (such as HIV-1LAI, HIV-1NL4-3, HIV-1BaL, HIV-1JRFL, HIV-189.6, HIV-1 HIV-1ERS104pre, HIV-1JSL, HIV-1MM, HIV-1TM and HIV-1MOKW) were exposed. After being incubated for 7 days, the amount of HIV-1p24 antigen on the supernatant liquid of the incubation was measured by an EIA method using Lumipulse F (Fuji Rebio).
Inhibiting effect to human PBMC infected by HIV-1 HIV-1BaL by the joint use of the compound of Example 2(1) and saquinavir (SQV) which is an anti-HIV inhibitor was investigated. Inhibiting effects of both compounds when the p24 amount where the compounds are not added is defined as 100% are shown in terms of % control.
Inhibiting effect to human PBMC infected by HIV-1 HIV-1BaL by the joint use of the compound of Example 75(54) and saquinavir (SQV) which is an anti-HIV inhibitor […] was investigated. Inhibiting effects of both compounds when the p24 amount where the compounds are not added is defined as 100% are shown in terms of % control.

Another test has as its system HIV-189.6. The test is described as follows: Inhibiting activity to HIV-1 infection to human PBMC (p24 antigen, EIA), HIV-1 89.6. The procedure:
as §1
(§2) Inhibiting effect to HIV-1 infection to human PBMC was investigated by the joint use of the compound of Example 2(1) with AMD 3100. The compound of Example 2(1) in various concentrations and AMD 3100 were added either solely or combinably and an assay was carried out. Inhibiting effects of both compounds when the p24 amount where the compounds are not added is defined as 100% are shown in terms of % control.

The test system of test [1] is Mixed Virus of HIV-1BaL and HIV-1NL4-3 (1:1). In words: Inhibiting activity to HIV-1 infection to human PBMC (p24 antigen, EIA), mixed virus. The following applies: HIV-1BaL + HIV-1NL4-3 (1:1). The procedure:
as §1, §2

Another test has as its system HIV-1MOKW. The test is described as follows: Inhibiting activity to HIV-1 infection to human PBMC (p24 antigen, EIA), wild-type HIV-1. The following applies: Human immunodeficiency virus 1, read-out: IC50, inhibiting effect to infection to human PBMC. The procedure: as §1
(§3) Inhibiting effect of the compound of Example 2(1) to human PBMC infected by wild-type HIV-1 (HIV-1MOKW) and by multidrug resistant HIV-1 (HIV-1JSL and HIV-1MM) to reverse transcriptase inhibitor and protease inhibitor was investigated.

For the next test, the system named is HIV-1JSL. The test is described as follows: Inhibiting activity to HIV-1 infection to human PBMC (p24 antigen, EIA), multidrug resistant HIV-1. The following applies: Human immunodeficiency virus 1, PBMC, read-out: IC50, inhibiting effect to infection to human PBMC. As for the experimental part:
as §1, §3

The next test relates to HIV-1MM. The test is described as above. The settings on record: Human immunodeficiency virus 1, PBMC, read-out: IC50, inhibiting effect to infection to human PBMC. As for the experimental part: as §1, §3
Where [2] appears, read: Example 2(1) 0.1 μM + AMD 3100 0.01 μM.
Where [3] appears, read: Example 2(1) 0.1 μM + AMD 3100 0.1 μM.
[4] abbreviates: Example 2(1) 1 μM + AMD 3100 0.01 μM.
[5] abbreviates: Example 2(1) 1 μM + AMD 3100 0.1 μM.

`CC(C)(C)NC(=O)[C@@H]1C[C@@H]2CCCC[C@@H]2CN1C[C@@H](O)[C@H](Cc1ccccc1)NC(=O)[C@H](CC(N)=O)NC(=O)c1ccc2ccccc2n1` [Saquinavir, saquinavir, reference compound]: the “p24 amount, % control (no compound = 100%)” value amounted to 78.1 % control with HIV-1BaL (Saquinavir 1 nM alone), 67.7 % control with HIV-1BaL (Saquinavir 5 nM alone), 53.8 % control in the test with HIV-1BaL (Saquinavir 0.01 μM alone) and 5.9 % control in the test with HIV-1BaL (Saquinavir 25 nM alone).
With `CCCCN1C(=O)[C@@H]([C@H](O)C2CCCCC2)NC(=O)C12CCN(Cc1ccc(Oc3ccc(C(=O)O)cc3)cc1)CC2.Cl` [Example 75(54), (3R)-1-butyl-2,5-dioxo-3-((1R)-1-hydroxy-1-cyclohexylmethyl)-9-(4-(4-carboxyphenyloxy)phenylmethyl)-1,4,9-triazaspiro[5.5]undecane.hydrochloride], the “p24 amount, % control (no compound = 100%)” value is 66.0 % control in the test with HIV-1BaL (Example 75(54) 0.2 nM + Saquinavir 1 nM); 52.0 % control with HIV-1BaL (Example 75(54) 0.2 nM + Saquinavir 5 nM); 5.7 % control in the test with HIV-1BaL (Example 75(54) 0.2 nM + Saquinavir 25 nM); 64.2 % control in the test with HIV-1BaL (Example 75(54) 0.2 nM alone); 32.8 % control in the test with HIV-1BaL (Example 75(54) 1 nM + Saquinavir 1 nM); 29.3 % control in the test on HIV-1BaL (Example 75(54) 1 nM + Saquinavir 5 nM). In addition, the “p24 amount, % control (no compound = 100%)” value was 3.8 % control in the test on HIV-1BaL (Example 75(54) 1 nM + Saquinavir 25 nM); 34.2 % control with HIV-1BaL (Example 75(54) 1 nM alone); 10.8 % control with HIV-1BaL (Example 75(54) 5 nM + Saquinavir 1 nM); 6.1 % control in the test on HIV-1BaL (Example 75(54) 5 nM + Saquinavir 5 nM); 1.6 % control in the test on HIV-1BaL (Example 75(54) 5 nM + Saquinavir 25 nM); 10.6 % control with HIV-1BaL (Example 75(54) 5 nM alone).
Consider `c1cc(CN2CCCNCCNCCCNCC2)ccc1CN1CCCNCCNCCCNCC1` [AMD 3100, reference compound], for which the “p24 amount, % control (no compound = 100%)” value amounted to 58.3 % control in the test with HIV-189.6 (AMD 3100 0.01 μM alone), 6.9 % control in the test on HIV-189.6 (AMD 3100 0.1 μM alone), 59.1 % control in test [1] (AMD 3100 0.01 μM alone) and 44.2 % control in test [1] (AMD 3100 0.1 μM alone).
Take `CCCCN1C(=O)C(CC2CCCCC2)NC(=O)C12CCN(Cc1ccc3c(c1)OCCO3)CC2.Cl` (stereo not shown) [Example 2(1), 9-(1,4-benzodioxan-6-ylmethyl)-1-butyl-3-cyclohexylmethyl-2,5-dioxo-1,4,9-triazaspiro[5.5]undecane.hydrochloride]: the “p24 amount, % control (no compound = 100%)” value in the test with HIV-189.6 (setting [2]) was 38.0 % control; with HIV-189.6 (setting [3]) it was 6.0 % control; in the test with HIV-189.6 (Example 2(1) 0.1 μM alone), 72.0 % control; in the test on HIV-189.6 (setting [4]), 15.1 % control; with HIV-189.6 (setting [5]), 0.7 % control; in the test with HIV-189.6 (Example 2(1) 1 μM alone), 64.5 % control. Also, the “p24 amount, % control (no compound = 100%)” value was 32.1 % control in test [1] (setting [2]); 17.8 % control in test [1] (setting [3]); 63.8 % control in test [1] (Example 2(1) 0.1 μM alone); 10.5 % control in test [1] (setting [4]); 1.5 % control in test [1] (setting [5]); 52.4 % control in test [1] (Example 2(1) 1 μM alone). Moreover, the “p24 amount, % control (no compound = 100%)” value with HIV-1BaL (Example 2(1) 0.1 μM + Saquinavir 0.01 μM) came out at 44.3 % control; in the test on HIV-1BaL (Example 2(1) 0.1 μM alone), 75.4 % control. Further, the 50% inhibitory concentration (IC50) is 40 ± 29 nM with HIV-1MOKW, 64 ± 11 nM in the test with HIV-1JSL and 48 ± 62 nM in the test with HIV-1MM.
